Test results taken from ChEMBL document CHEMBL3046480, “Synthesis of damnacanthal, a naturally occurring 9,10-anthraquinone and its analogues, and its biological evaluation against five cancer cell lines” (Med Chem Res, 2013).
Calls of active or inactive are those of the source. The calls are words filed in the database; no cut-off is given here.

System: MES-SA
Test: Cytotoxicity against Homo sapiens (human) MES-SA cells assessed as inhibition of cell survival after 96 hr by MTT assay
Format: functional, cell-based
Conditions: Homo sapiens, MES-SA, 96 h; read-out: IC50

| Compound | IC50 [µM] |
| --- | --- |
| O=C1c2ccccc2C(=O)c2c(Br)cc(O)cc21 | 56 |
| O=Cc1c(O)cc2c(c1O)C(=O)c1ccccc1C2=O | 18 |
| O=C1c2ccccc2C(=O)c2c(O)cc(O)cc21 [XANTHOPURPURIN] | 30 |
| Cc1c(O)c(Br)c2c(c1O)C(=O)c1ccccc1C2=O | 20 |
| COc1cc2c(c(O)c1CBr)C(=O)c1ccccc1C2=O | 4 |
| COc1cc2c(c(OC)c1CBr)C(=O)c1ccccc1C2=O | 2 |
| COc1ccc(C)c2c1C(=O)c1ccccc1C2=O | 19 |
| COc1cc2c(c(OC)c1C(Br)Br)C(=O)c1ccccc1C2=O | 10 |
| Cc1c(O)cc2c(c1O)C(=O)c1ccccc1C2=O [Rubiadin] | 38 |
| COc1cc2c(c(OC)c1C=O)C(=O)c1ccccc1C2=O | 5 |
| O=C1c2ccccc2C(=O)c2c(Br)ccc(O)c21 | 14 |

Same assay, conditions: mes-sa

| Compound | IC50 |
| --- | --- |
| O=C1c2ccccc2C(=O)c2cc(O)ccc21 [2-HYDROXYANTHRAQUINONE] | Not Active |
| CCOCc1c(OC(C)=O)cc2c(c1OC)C(=O)c1ccccc1C2=O | Not Active |
| CCOCc1c(OC)cc2c(c1OC)C(=O)c1ccccc1C2=O | Not Active |
| COc1ccc(O)c2c1C(=O)c1ccccc1C2=O | Not Active |
| COc1c(C=O)c(O)cc2c1C(=O)c1ccccc1C2=O [DAMNACANTHAL] | Not Active |

System: not listed separately
Test: Antioxidant activity measured after 3 min by ferric thiocyanate method
Format: functional
Conditions: not given

| Compound | Activity |
| --- | --- |
| O=C1c2ccccc2C(=O)c2c(Br)cc(O)cc21 | inactive |
| O=C1c2ccccc2C(=O)c2cc(O)ccc21 [2-HYDROXYANTHRAQUINONE] | inactive |
| O=Cc1c(O)cc2c(c1O)C(=O)c1ccccc1C2=O | Active |
| CCOCc1c(OC(C)=O)cc2c(c1OC)C(=O)c1ccccc1C2=O | inactive |
| CCOCc1c(OC)cc2c(c1OC)C(=O)c1ccccc1C2=O | inactive |
| COc1ccc(O)c2c1C(=O)c1ccccc1C2=O | inactive |
| COc1c(C=O)c(O)cc2c1C(=O)c1ccccc1C2=O [DAMNACANTHAL] | Active |
| O=C1c2ccccc2C(=O)c2c(O)cc(O)cc21 [XANTHOPURPURIN] | inactive |
| Cc1c(O)c(Br)c2c(c1O)C(=O)c1ccccc1C2=O | inactive |
| COc1cc2c(c(O)c1CBr)C(=O)c1ccccc1C2=O | inactive |
| COc1cc2c(c(OC)c1CBr)C(=O)c1ccccc1C2=O | inactive |
| COc1ccc(C)c2c1C(=O)c1ccccc1C2=O | inactive |
| COc1cc2c(c(OC)c1C(Br)Br)C(=O)c1ccccc1C2=O | inactive |
| Cc1c(O)cc2c(c1O)C(=O)c1ccccc1C2=O [Rubiadin] | inactive |
| COc1cc2c(c(OC)c1C=O)C(=O)c1ccccc1C2=O | inactive |
| O=C1c2ccccc2C(=O)c2c(Br)ccc(O)c21 | inactive |

System: DU-145
Test: Cytotoxicity against Homo sapiens (human) DU145 cells assessed as inhibition of cell survival after 96 hr by MTT assay
Format: functional, cell-based
Conditions: Homo sapiens, DU-145, 96 h; read-out: IC50

| Compound | IC50 [µM] |
| --- | --- |
| O=C1c2ccccc2C(=O)c2c(Br)cc(O)cc21 | 44 |
| O=C1c2ccccc2C(=O)c2cc(O)ccc21 [2-HYDROXYANTHRAQUINONE] | 72 |
| O=Cc1c(O)cc2c(c1O)C(=O)c1ccccc1C2=O | 42 |
| CCOCc1c(OC(C)=O)cc2c(c1OC)C(=O)c1ccccc1C2=O | 23 |
| COc1ccc(O)c2c1C(=O)c1ccccc1C2=O | 74 |
| COc1c(C=O)c(O)cc2c1C(=O)c1ccccc1C2=O [DAMNACANTHAL] | 26 |
| O=C1c2ccccc2C(=O)c2c(O)cc(O)cc21 [XANTHOPURPURIN] | 29 |
| Cc1c(O)c(Br)c2c(c1O)C(=O)c1ccccc1C2=O | 31 |
| COc1cc2c(c(O)c1CBr)C(=O)c1ccccc1C2=O | 26 |
| COc1cc2c(c(OC)c1CBr)C(=O)c1ccccc1C2=O | 4 |
| COc1ccc(C)c2c1C(=O)c1ccccc1C2=O | 48 |
| COc1cc2c(c(OC)c1C(Br)Br)C(=O)c1ccccc1C2=O | 28 |
| Cc1c(O)cc2c(c1O)C(=O)c1ccccc1C2=O [Rubiadin] | 32 |
| COc1cc2c(c(OC)c1C=O)C(=O)c1ccccc1C2=O | 32 |
| O=C1c2ccccc2C(=O)c2c(Br)ccc(O)c21 | 27 |

Same assay, conditions: du-145

| Compound | IC50 |
| --- | --- |
| CCOCc1c(OC)cc2c(c1OC)C(=O)c1ccccc1C2=O | Not Active |

System: not listed separately
Test: Cytotoxicity against Homo sapiens (human) MES-SA/Dx5 cells assessed as inhibition of cell survival after 96 hr by MTT assay
Format: functional, cell-based
Conditions: Homo sapiens, MES-SA/Dx5, 96 h; read-out: IC50

| Compound | IC50 [µM] |
| --- | --- |
| O=C1c2ccccc2C(=O)c2c(Br)cc(O)cc21 | 29 |
| O=C1c2ccccc2C(=O)c2c(O)cc(O)cc21 [XANTHOPURPURIN] | 21 |
| Cc1c(O)c(Br)c2c(c1O)C(=O)c1ccccc1C2=O | 30 |
| COc1cc2c(c(OC)c1CBr)C(=O)c1ccccc1C2=O | 2 |
| COc1cc2c(c(OC)c1C(Br)Br)C(=O)c1ccccc1C2=O | 7 |
| Cc1c(O)cc2c(c1O)C(=O)c1ccccc1C2=O [Rubiadin] | 35 |
| O=C1c2ccccc2C(=O)c2c(Br)ccc(O)c21 | 20 |

Same assay, conditions: mes-sa/dx5

| Compound | IC50 |
| --- | --- |
| O=C1c2ccccc2C(=O)c2cc(O)ccc21 [2-HYDROXYANTHRAQUINONE] | Not Active |
| O=Cc1c(O)cc2c(c1O)C(=O)c1ccccc1C2=O | Not Active |
| CCOCc1c(OC(C)=O)cc2c(c1OC)C(=O)c1ccccc1C2=O | Not Active |
| CCOCc1c(OC)cc2c(c1OC)C(=O)c1ccccc1C2=O | Not Active |
| COc1ccc(O)c2c1C(=O)c1ccccc1C2=O | Not Active |
| COc1c(C=O)c(O)cc2c1C(=O)c1ccccc1C2=O [DAMNACANTHAL] | Not Active |
| COc1cc2c(c(O)c1CBr)C(=O)c1ccccc1C2=O | Not Active |
| COc1ccc(C)c2c1C(=O)c1ccccc1C2=O | Not Active |
| COc1cc2c(c(OC)c1C=O)C(=O)c1ccccc1C2=O | Not Active |

System: MCF7
Test: Cytotoxicity against Homo sapiens (human) MCF7 cells assessed as inhibition of cell survival after 96 hr by MTT assay
Format: functional, cell-based
Conditions: Homo sapiens, MCF7, 96 h; read-out: IC50

| Compound | IC50 [µM] |
| --- | --- |
| O=C1c2ccccc2C(=O)c2c(Br)cc(O)cc21 | 27 |
| O=C1c2ccccc2C(=O)c2cc(O)ccc21 [2-HYDROXYANTHRAQUINONE] | 69 |
| O=Cc1c(O)cc2c(c1O)C(=O)c1ccccc1C2=O | 36 |
| CCOCc1c(OC(C)=O)cc2c(c1OC)C(=O)c1ccccc1C2=O | 30 |
| COc1ccc(O)c2c1C(=O)c1ccccc1C2=O | 79 |
| COc1c(C=O)c(O)cc2c1C(=O)c1ccccc1C2=O [DAMNACANTHAL] | 11 |
| O=C1c2ccccc2C(=O)c2c(O)cc(O)cc21 [XANTHOPURPURIN] | 55 |
| Cc1c(O)c(Br)c2c(c1O)C(=O)c1ccccc1C2=O | 28 |
| COc1cc2c(c(O)c1CBr)C(=O)c1ccccc1C2=O | 34 |
| COc1cc2c(c(OC)c1CBr)C(=O)c1ccccc1C2=O | 8 |
| COc1ccc(C)c2c1C(=O)c1ccccc1C2=O | 55 |
| COc1cc2c(c(OC)c1C(Br)Br)C(=O)c1ccccc1C2=O | 27 |
| Cc1c(O)cc2c(c1O)C(=O)c1ccccc1C2=O [Rubiadin] | 56 |
| COc1cc2c(c(OC)c1C=O)C(=O)c1ccccc1C2=O | 55 |
| O=C1c2ccccc2C(=O)c2c(Br)ccc(O)c21 | 36 |

Same assay, conditions: mcf7

| Compound | IC50 |
| --- | --- |
| CCOCc1c(OC)cc2c(c1OC)C(=O)c1ccccc1C2=O | Not Active |

System: not listed separately
Test: Antioxidant activity measured after 10 min by thiobarbituric acid method
Format: functional
Conditions: not given

| Compound | Activity |
| --- | --- |
| O=Cc1c(O)cc2c(c1O)C(=O)c1ccccc1C2=O | Active |
| COc1c(C=O)c(O)cc2c1C(=O)c1ccccc1C2=O [DAMNACANTHAL] | Active |

System: not listed separately
Test: Cytotoxicity against Homo sapiens (human) H460 cells assessed as inhibition of cell survival after 96 hr by MTT assay
Format: functional, cell-based, NCI-H460
Conditions: Homo sapiens, NCI-H460, 96 h; read-out: IC50

| Compound | IC50 [µM] |
| --- | --- |
| O=C1c2ccccc2C(=O)c2c(Br)cc(O)cc21 | 43 |
| O=C1c2ccccc2C(=O)c2cc(O)ccc21 [2-HYDROXYANTHRAQUINONE] | 66 |
| O=Cc1c(O)cc2c(c1O)C(=O)c1ccccc1C2=O | 40 |
| COc1ccc(O)c2c1C(=O)c1ccccc1C2=O | 82 |
| COc1c(C=O)c(O)cc2c1C(=O)c1ccccc1C2=O [DAMNACANTHAL] | 25 |
| O=C1c2ccccc2C(=O)c2c(O)cc(O)cc21 [XANTHOPURPURIN] | 23 |
| Cc1c(O)c(Br)c2c(c1O)C(=O)c1ccccc1C2=O | 19 |
| COc1cc2c(c(O)c1CBr)C(=O)c1ccccc1C2=O | 30 |
| COc1cc2c(c(OC)c1CBr)C(=O)c1ccccc1C2=O | 5 |
| COc1ccc(C)c2c1C(=O)c1ccccc1C2=O | 54 |
| COc1cc2c(c(OC)c1C(Br)Br)C(=O)c1ccccc1C2=O | 23 |
| Cc1c(O)cc2c(c1O)C(=O)c1ccccc1C2=O [Rubiadin] | 42 |
| COc1cc2c(c(OC)c1C=O)C(=O)c1ccccc1C2=O | 65 |
| O=C1c2ccccc2C(=O)c2c(Br)ccc(O)c21 | 20 |

Same assay, conditions: nci-h460

| Compound | IC50 |
| --- | --- |
| CCOCc1c(OC(C)=O)cc2c(c1OC)C(=O)c1ccccc1C2=O | Not Active |
| CCOCc1c(OC)cc2c(c1OC)C(=O)c1ccccc1C2=O | Not Active |
